Measured values: patent US9446039B2, “Aminoheteroaryl compounds as MTH1 inhibitors” (CEMM—FORSCHUNGSZENTRUM FÜR MOLEKULARE MEDIZIN GMBH, priority 2012, dated 2016)

Tests used:
Format in all cases: binding
[1] = target: SW480 colon carcinoma cells lysate proteins (Homo sapiens, UniProt Q13885); settings: PreyGene TUBB2A; SW480 cells
[2] = target: SW480 colon carcinoma cells lysate proteins (Homo sapiens, UniProt Q71U36); settings: PreyGene TUBA1A; SW480 cells
[3] = target: SW480 colon carcinoma cells lysate proteins (Homo sapiens, UniProt Q9BVA1); settings: PreyGene TUBB2B; SW480 cells
SW480 colon carcinoma cells lysate proteins (Homo sapiens, UniProt Q9BVA1), sequence (Q9BVA1 whole entry): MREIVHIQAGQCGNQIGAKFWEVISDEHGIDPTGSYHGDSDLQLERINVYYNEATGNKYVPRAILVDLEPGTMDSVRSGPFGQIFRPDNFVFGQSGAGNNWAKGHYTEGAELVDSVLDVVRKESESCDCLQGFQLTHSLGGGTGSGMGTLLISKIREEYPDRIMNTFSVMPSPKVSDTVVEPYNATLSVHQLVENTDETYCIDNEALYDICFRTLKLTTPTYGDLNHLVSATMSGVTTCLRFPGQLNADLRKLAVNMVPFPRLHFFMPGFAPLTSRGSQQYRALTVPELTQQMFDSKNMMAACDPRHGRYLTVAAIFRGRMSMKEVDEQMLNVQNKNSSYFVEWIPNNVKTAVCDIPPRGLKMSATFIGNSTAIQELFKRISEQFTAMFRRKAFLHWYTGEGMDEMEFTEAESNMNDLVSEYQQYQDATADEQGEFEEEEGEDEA

[4] = target: SW480 colon carcinoma cells lysate proteins (Homo sapiens, UniProt P06733); settings: PreyGene ENO1
SW480 colon carcinoma cells lysate proteins (Homo sapiens, UniProt P06733), sequence (P06733 whole entry): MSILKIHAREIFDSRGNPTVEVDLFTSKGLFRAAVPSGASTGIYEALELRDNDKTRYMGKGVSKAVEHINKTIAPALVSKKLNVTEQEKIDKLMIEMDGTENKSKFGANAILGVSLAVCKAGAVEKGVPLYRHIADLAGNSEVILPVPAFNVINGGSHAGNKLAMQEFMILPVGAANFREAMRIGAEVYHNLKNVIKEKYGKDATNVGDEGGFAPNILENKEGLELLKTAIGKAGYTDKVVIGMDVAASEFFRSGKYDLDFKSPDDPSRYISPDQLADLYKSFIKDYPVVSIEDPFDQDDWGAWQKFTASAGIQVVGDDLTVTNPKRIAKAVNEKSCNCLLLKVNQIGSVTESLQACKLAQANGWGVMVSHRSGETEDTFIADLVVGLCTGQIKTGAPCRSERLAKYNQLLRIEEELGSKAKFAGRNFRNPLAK

[5] = target: T1, SW480 colon carcinoma cells lysate proteins (Homo sapiens, UniProt P30043); settings: PreyGene BLVRB
T1 sequence (P30043 1-206): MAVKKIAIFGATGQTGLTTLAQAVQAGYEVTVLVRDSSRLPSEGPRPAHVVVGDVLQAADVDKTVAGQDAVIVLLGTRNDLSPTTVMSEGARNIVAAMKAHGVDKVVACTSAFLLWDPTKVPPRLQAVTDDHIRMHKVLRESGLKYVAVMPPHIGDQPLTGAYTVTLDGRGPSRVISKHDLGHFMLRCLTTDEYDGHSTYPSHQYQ

[6] = target: SW480 colon carcinoma cells lysate proteins (Homo sapiens, UniProt P63244); settings: PreyGene GNB2L1; SW480 cells
[7] = target: T2, SW480 colon carcinoma cells lysate proteins (Homo sapiens, UniProt P10599); settings: PreyGene TXN
T2 sequence (P10599 1-105): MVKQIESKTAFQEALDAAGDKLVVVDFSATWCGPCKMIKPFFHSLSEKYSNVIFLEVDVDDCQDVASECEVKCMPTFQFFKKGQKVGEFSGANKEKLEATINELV

[8] = target: SW480 colon carcinoma cells lysate proteins (Homo sapiens, UniProt Q13283); settings: PreyGene G3BP1; SW480 cells
SW480 colon carcinoma cells lysate proteins (Homo sapiens, UniProt Q13283), sequence (Q13283 whole entry): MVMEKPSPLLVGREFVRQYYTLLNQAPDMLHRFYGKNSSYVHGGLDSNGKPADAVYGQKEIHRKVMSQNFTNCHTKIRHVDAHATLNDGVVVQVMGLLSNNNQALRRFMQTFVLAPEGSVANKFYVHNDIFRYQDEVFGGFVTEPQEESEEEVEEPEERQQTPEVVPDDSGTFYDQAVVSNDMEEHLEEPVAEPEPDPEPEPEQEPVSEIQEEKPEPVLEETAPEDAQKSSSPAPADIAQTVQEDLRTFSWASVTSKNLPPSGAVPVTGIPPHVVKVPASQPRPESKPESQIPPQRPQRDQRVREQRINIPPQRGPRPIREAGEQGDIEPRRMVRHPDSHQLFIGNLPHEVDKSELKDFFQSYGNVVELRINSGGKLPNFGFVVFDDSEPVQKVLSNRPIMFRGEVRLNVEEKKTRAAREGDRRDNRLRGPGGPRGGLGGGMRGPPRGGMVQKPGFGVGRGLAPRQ

[9] = target: T3, SW480 colon carcinoma cells lysate proteins (Homo sapiens, UniProt P12081); settings: PreyGene HARS
T3 sequence (P12081 1-509): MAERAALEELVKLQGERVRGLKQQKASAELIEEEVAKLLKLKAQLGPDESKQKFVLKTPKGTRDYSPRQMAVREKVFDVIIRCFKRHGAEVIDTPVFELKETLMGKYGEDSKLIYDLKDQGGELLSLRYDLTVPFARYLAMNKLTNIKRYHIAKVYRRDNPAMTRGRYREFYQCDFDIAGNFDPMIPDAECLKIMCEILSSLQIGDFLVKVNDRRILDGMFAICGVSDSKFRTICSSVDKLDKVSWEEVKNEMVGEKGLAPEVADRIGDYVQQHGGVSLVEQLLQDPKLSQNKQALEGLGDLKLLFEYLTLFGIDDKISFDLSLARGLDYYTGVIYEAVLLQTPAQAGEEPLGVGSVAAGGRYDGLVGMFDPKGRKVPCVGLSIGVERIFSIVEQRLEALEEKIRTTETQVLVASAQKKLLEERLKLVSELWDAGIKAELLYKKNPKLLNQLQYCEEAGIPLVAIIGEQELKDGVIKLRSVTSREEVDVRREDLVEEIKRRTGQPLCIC

[10] = target: T4, SW480 colon carcinoma cells lysate proteins (Homo sapiens, UniProt P78371); settings: PreyGene CCT2; SW480 cells
T4 sequence (P78371 1-535): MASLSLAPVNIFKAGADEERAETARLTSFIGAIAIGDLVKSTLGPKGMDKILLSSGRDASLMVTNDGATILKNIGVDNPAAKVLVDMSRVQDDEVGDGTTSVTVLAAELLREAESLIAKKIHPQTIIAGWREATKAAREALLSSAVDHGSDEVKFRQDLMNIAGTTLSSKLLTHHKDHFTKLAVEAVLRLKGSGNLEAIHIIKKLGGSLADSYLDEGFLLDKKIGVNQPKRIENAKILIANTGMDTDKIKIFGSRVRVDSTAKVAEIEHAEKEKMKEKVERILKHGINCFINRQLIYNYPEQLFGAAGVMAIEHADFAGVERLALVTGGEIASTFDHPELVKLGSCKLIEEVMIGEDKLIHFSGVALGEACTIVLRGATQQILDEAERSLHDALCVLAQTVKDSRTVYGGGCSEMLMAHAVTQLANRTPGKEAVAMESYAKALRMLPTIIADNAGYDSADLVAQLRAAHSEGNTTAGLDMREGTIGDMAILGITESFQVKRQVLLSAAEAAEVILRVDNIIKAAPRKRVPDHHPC

SW480 colon carcinoma cells lysate proteins (Homo sapiens, UniProt Q71U36), sequence (Q71U36 whole entry): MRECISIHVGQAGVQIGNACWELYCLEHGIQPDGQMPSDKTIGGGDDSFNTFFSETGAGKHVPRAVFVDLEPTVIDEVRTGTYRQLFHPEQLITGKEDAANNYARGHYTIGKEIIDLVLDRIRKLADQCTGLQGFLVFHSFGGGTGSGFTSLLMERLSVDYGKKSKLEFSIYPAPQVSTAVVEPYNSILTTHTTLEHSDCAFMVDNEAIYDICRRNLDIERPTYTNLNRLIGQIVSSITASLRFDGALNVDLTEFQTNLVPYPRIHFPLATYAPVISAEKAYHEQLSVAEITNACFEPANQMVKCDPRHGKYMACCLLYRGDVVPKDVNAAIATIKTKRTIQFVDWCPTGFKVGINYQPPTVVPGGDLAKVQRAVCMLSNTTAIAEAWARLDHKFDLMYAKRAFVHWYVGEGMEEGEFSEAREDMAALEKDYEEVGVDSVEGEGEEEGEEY
SW480 colon carcinoma cells lysate proteins (Homo sapiens, UniProt Q13885), sequence (Q13885 whole entry): as the sequence (Q9BVA1 whole entry) above, with T55A, C201S counted along it

`C[C@H](Oc1cc(-c2cnn(C3CCNCC3)c2)cnc1N)c1c(Cl)ccc(F)c1Cl` [(5)-crizotinib] was tested, and the AvgP [1] was 0, the “SC.Exp. 1-1” value [1] was 5 and the “SC.Exp. 1-2” value [1] was 4. For the same compound, the “SC.Exp. 2-1” value [1] was 2, the “SC.Exp. 2-2” value [1] was 2 and the “SC.Exp. Sum” value [1] was 13. The AvgP [2] was 0, the “SC.Exp. 1-1” value [2] was 12 and the “SC.Exp. 1-2” value [2] was 11. For the same compound, the “SC.Exp. 2-1” value [2] was 9, the “SC.Exp. 2-2” value [2] was 10 and the “SC.Exp. Sum” value [2] was 42. The AvgP [3] was 0, the “SC.Exp. 1-1” value [3] was 4 and the “SC.Exp. 1-2” value [3] was 3. For the same compound, the “SC.Exp. 2-1” value [3] was 1, the “SC.Exp. 2-2” value [3] was 2 and the “SC.Exp. Sum” value [3] was 10. The AvgP [4] was 0.2209, the “SC.Exp. 1-1” value [4] was 29 and the “SC.Exp. 1-2” value [4] was 28. For the same compound, the “SC.Exp. 2-1” value [4] was 7, the “SC.Exp. 2-2” value [4] was 7 and the “Sum (SC.Exp.)” value [4] was 71. For the same compound, the AvgP [5] was 0.1915, the “SC.Exp. 1-1” value [5] was 0 and the “SC.Exp. 1-2” value [5] was 2. The “SC.Exp. 2-1” value [5] was 0, the “SC.Exp. 2-2” value [5] was 0 and the “Sum (SC.Exp.)” value [5] was 2. The AvgP [6] was 0, the “SC.Exp. 1-1” value [6] was 12 and the “SC.Exp. 1-2” value [6] was 13. For the same compound, the “SC.Exp. 2-1” value [6] was 9, the “SC.Exp. 2-2” value [6] was 11 and the “SC.Exp. Sum” value [6] was 45. The AvgP [7] was 0.4587, the “SC.Exp. 1-1” value [7] was 4 and the “SC.Exp. 1-2” value [7] was 5. The “SC.Exp. 2-1” value [7] was 2, the “SC.Exp. 2-2” value [7] was 1 and the “Sum (SC.Exp.)” value [7] was 12. For the same compound, the AvgP [8] was 0, the “SC.Exp. 1-1” value [8] was 2 and the “SC.Exp. 1-2” value [8] was 2. The “SC.Exp. 2-1” value [8] was 3, the “SC.Exp. 2-2” value [8] was 2 and the “SC.Exp. Sum” value [8] was 9. The AvgP [9] was 0.3676, the “SC.Exp. 1-1” value [9] was 3 and the “SC.Exp. 1-2” value [9] was 3. For the same compound, the “SC.Exp. 2-1” value [9] was 0, the “SC.Exp. 2-2” value [9] was 0 and the “Sum (SC.Exp.)” value [9] was 6. The AvgP [10] was 0, the “SC.Exp. 1-1” value [10] was 9 and the “SC.Exp. 1-2” value [10] was 11. For the same compound, the “SC.Exp. 2-1” value [10] was 3, the “SC.Exp. 2-2” value [10] was 3 and the “SC.Exp. Sum” value [10] was 26.
